How the values were obtained:
Assay type in all cases: functional
Parameters in all cases: concentration or dose not given beside the values
Plasmodium falciparum [1] = assay: (§1) MMV: P. falciparum NF54 functionally mature Stage V gametocytes were incubated for 24 hr in the presence of the test compounds. Gamete formation was then triggered by addition of 2uM xantheurenic acid and temperature decrease to ~20C. Male gamete exflagellation was recorded and analysed by automated microscopy after 20 min. All compounds were tested in 4 independent experiments and data presented here is the mean.
Plasmodium falciparum [2] = assay: as §1, with “Female” for “Male”, “formation” for “exflagellation”, “24 hr later” for “and analysed”, “detection of surface labelling of female gametes with a Cy3-conjugated antibody reactive to Pfs25.” for “after 20 min.”; settings: NF54, 24 h
Plasmodium berghei = assay: MMV: P. berghei-infected blood was withdrawn from mice by cardiac pucture before being immediately added to ookinete culture medium containing test compounds. 26 hr later, GFP-positive ookinetes were identified and counted by automated microscopy. All compounds were tested in 4 independent experiments and data presented here is the mean.

Structure (SMILES) | inhibition (Plasmodium falciparum [1]) [%] | inhibition (Plasmodium falciparum [2]) [%] | inhibition (Plasmodium berghei) [%]
COc1cccc(Cn2c(Oc3ccccc3)nc3c2c(=O)n(C)c(=O)n3C)c1 | 35.5 | 1.84 | -11.71
CCOc1cc(CNC(C)C(O)c2ccccc2)cc(Cl)c1OCC (configuration not stated) | 11.6 | -44.5 | -7.956
COc1ccc(-c2nc(N3CCN(C(=O)C4CCCCC4)CC3)c3c4c(sc3n2)CCCC4)cc1 | 1.21 | -9.88 | -8.277
Cc1sc(NC(=O)c2ccco2)c(C(c2cccnc2)N2CCC(Cc3ccccc3)CC2)c1C (configuration not stated) | 9.35 | -26 | -7.977
Cc1cc(N2CCCC2)nc(Nc2ccc(NC(=O)CCc3ccccc3)cc2)n1 | -19.1 | -8.07 | -8.954
Cc1ccc(-c2cc3c(SCC(=O)Nc4cc(C(F)(F)F)ccc4Cl)nccn3n2)cc1 | 11.4 | 0.168 | -10.47
CC1(c2ccccc2)Nc2ccccc2-c2nc3ccccc3n21 (configuration not stated) | 11.7 | 0.151 | -11.28
N#Cc1nc(Cc2cccc3ccccc23)oc1N1CCN(C(c2ccccc2)c2ccccc2)CC1 | 10.2 | -38.4 | -7.443
COC(=O)c1ccc(Cl)c2c1C1C=CCC1C(c1cccc3ccccc13)N2 (configuration not stated) | 42.4 | 10.4 | -8.751
CN(N=O)C1=C(NC2CCCCC2)C(=O)c2ccccc2C1=O | 10.5 | -27.6 | -8.019
O=C(Nc1ccccc1O)c1ccc(Oc2cccc(C(=O)Nc3ccccc3O)c2)cc1 | 15.9 | -9.72 | -7.561
CCCCCC(=O)N1c2ccccc2N=C2CC(c3ccc(OC)c(OC)c3)CC(O)=C2C1c1ccc(C(F)(F)F)cc1 (configuration not stated) | 59.4 | -11.5 | -9.202
Cc1cc(NCCN2CCCCC2)c2ccc3ccccc3c2n1 | -47.9 | 7.19 | -8.584
Cc1ccc(-c2cc(C(=O)Nc3ccc(S(=O)(=O)N4CCCCC4)cc3)[nH]n2)c(O)c1 | 7.64 | -11.2 | -10.93
O=C(NC1CCN(Cc2ccccc2)CC1)c1cc(-c2ccncc2)nc2ccc(Cl)cc12 | -6.34 | -10.1 | -9.022
COc1cccc(Nc2nc(N)c3ccccc3n2)c1.Cl | -35.2 | -36.4 | -11.42
CCC(O)c1ccc(Br)cc1NC(=O)c1cccc(Cl)c1 (configuration not stated) | 4.9 | -44 | -8.417
COc1ccc2nc(N)nc(C)c2c1 | 45.7 | 6.91 | -8.497
Cc1[nH]c(-c2ccc(F)cc2)cc1C(=O)NC1CCN(Cc2ccccc2)CC1 | 7.06 | -3.53 | -7.189
CC1CN(C(=O)c2sc3ccccc3c2Cl)CC(C)O1 (configuration not stated) | 35.6 | -12.3 | -8.352
COc1ccc(CCN2CCC(CN(C)Cc3cnn(-c4ccccc4)c3)CC2)cc1 | -4.67 | -27.5 | -8.146
O=C(NC1CCCC1)c1ccc(N2CCC(NCc3cccc(C(F)(F)F)c3)CC2)cc1 | -12 | -14 | -10.11

Structure (SMILES) | inhibition (Plasmodium falciparum [1]) [%] | inhibition (Plasmodium falciparum [2]) [%] | inhibition (Plasmodium berghei) [%]
CCOc1cc(Cl)c(C(C)NC(=O)c2cccc(OC)c2)cc1OCC (configuration not stated) | 3.61 | -14.9 | -8.297
FC(F)(F)c1cccc(Nc2nc(-c3ccccc3)nc3ncccc23)c1 | 10.8 | 8.9 | -9.471
Cc1ccc(Cl)cc1N1CCN(CCCNC(=O)C2CCN(c3nc4ccccc4[nH]3)CC2)CC1 | 5 | -57.2 | -9.077
Cn1c(C(=O)c2cccc3ccccc23)nc2ccccc21 | -24.7 | -20.6 | -7.647
N=c1c2ccccc2nnn1-c1cccc(C(F)(F)F)c1 | 51.2 | 7.15 | -9.695
CCOc1ccc(C2N(C)c3ccccc3N2C)cc1 | -6.18 | 9.89 | -11.42
Cc1ccc(OCCCCCCNCCO)c(C)c1 | -19.1 | 0.189 | -11.75
CCOc1cc(Cl)c(C(C)NC(=O)c2ccccc2)cc1OCC (configuration not stated) | 32.8 | -37 | -7.982
CC(=O)NCCc1nc2ccccc2n1Cc1ccc(C(C)C)cc1 | -6.3 | -12.8 | -8.216
O=C(Nc1ccc(-c2nc3cc(NC(=O)c4ccc(Cl)cc4)ccc3[nH]2)cc1)c1ccc(Cl)cc1 | -17.6 | -21.8 | -7.523
COc1nc(Nc2ccc(C(C)C)cc2)nc(OC)n1 | -0.697 | -59.5 | -7.623
CCOc1cccc(C(=O)Nc2ccc(-c3nc4ccccc4[nH]3)cc2)c1 | 32.1 | -29.6 | -10.12
Cc1cc(N(C)C)nc(Nc2ccc(NC(=O)Nc3ccccc3)cc2)n1 | 33.6 | -35.4 | -9.07
Cc1ccc2cc3c(N)c4c(C)ccc(C)c4nc3nc2c1 | -9.27 | -28.1 | -10.8
O=C(CSc1ccc2nnc(-c3cccc(F)c3)n2n1)Nc1ccc2c(c1)OCO2 | -1.24 | -24.8 | -8.438
Cc1cc(C)c2c(c1)OCN(Cc1ccccc1Cl)C2 | 25.8 | -10 | -11.06
CCCC(c1nnnn1C1CCCCC1)N1CCN(C(=O)c2ccco2)CC1.Cl (configuration not stated) | 23.7 | -48.5 | -10.21
Cc1cc(NC(=O)c2ccc(-c3ccccc3)cc2)no1 | 18.9 | -45.6 | -9.578
COc1ccc(-c2nonc2NC(=O)c2cccc(C)c2)cc1OC | 31.3 | 3.1 | -9.338
Cc1cc(C)c2nc(N3CCC(C(=O)NCCCN4CCC(N5CCCCC5)CC4)CC3)sc2c1 | 8.94 | 21.7 | -9.223
O=C(Nc1ccsc1C(=O)NC1CCCCC1)c1ccc(F)cc1 | 0.722 | -14.2 | -7.294
CCOc1cccc2sc(N(Cc3cccnc3)C(=O)C3CCCCC3)nc12 | -1.33 | -5.49 | -7.751

Structure (SMILES) | inhibition (Plasmodium falciparum [1]) [%] | inhibition (Plasmodium falciparum [2]) [%] | inhibition (Plasmodium berghei) [%]
CC(C)(C)c1ccc(C(=O)Nc2c3c(nn2-c2cccc(Cl)c2)CSC3)cc1 | 25.7 | -5.95 | -7.14
CCOc1cc2c(cc1OCC)C(c1cc(Cl)c(O)c(OCC)c1)NCC2 (configuration not stated) | 22.4 | 14.7 | -11.39
CCN(CC)c1cc(C)c2cc(NC(=O)c3cccc(OC)c3)ccc2n1 | -1.32 | -22.1 | -7.501
CC(C)(C)CC(C)(C)NCC(O)COc1ccc2c(c1)CCC2.Cl (configuration not stated) | -54.4 | -4.34 | -7.207
O=C(Nc1ccc(F)c(Cl)c1)Nc1ccc(Cl)c(Cl)c1 | 15.7 | -12.2 | -10.47
CSc1ccccc1C(=O)Nc1nc(-c2ccccn2)cs1 | 20.5 | -18.6 | -9.487
CC(O)(c1ccc(Cl)cc1)C(CN1CCCCC1)c1ccccc1.Cl (configuration not stated) | -5.37 | -1.41 | -9.711
COc1cc(CNCCc2ccc(Cl)cc2)cc(OC)c1O | -14.1 | -40.5 | -10.96
COc1ccc(OC)c(C2C3=C(CC(C)(C)CC3=O)N(c3ccc(Cl)c(Cl)c3)C3=C2C(=O)CC(C)(C)C3)c1 | -60 | -10.6 | -8.364
COc1ccc(C(=O)NC(c2ccccc2Cl)c2cc(Cl)c3cccnc3c2O)cc1 (configuration not stated) | 2.11 | -6.93 | -9.997
CCCCCCOC(=O)C1=C(C)NC(=O)NC1c1ccccc1F (configuration not stated) | 11.4 | -1.36 | -7.086
Clc1ccc2c(N3CCCC3)ccnc2c1 | 33.7 | 5.78 | -9.994
CCCCCCC(O)(c1ccc(F)cc1)C(CN1CCOCC1)c1ccccc1.Cl (configuration not stated) | -64 | 17.7 | -9.863
Br.Cc1ccc(C)c(-c2csc(Nc3ccc(C)c(C)c3)n2)c1 | 20.6 | -46.3 | -11.38
CCOc1c(Br)cc(C2C(C(=O)OC)=CN(C)C=C2C(=O)OC)cc1OC | 8.8 | 4.74 | -9.574
COc1ccc(C(=O)C2CC2c2ccc(Cl)cc2)cc1 (configuration not stated) | 19.4 | -10.6 | -7.167
Br.CCN(CC)S(=O)(=O)c1ccc(-c2csc(Nc3ccc(C)c(C)c3)n2)cc1 | 21.9 | -51.5 | -11.5
COc1ccc(NC(=O)C2c3ccccc3C(=O)N(CC(C)C)C2c2cccs2)cc1 (configuration not stated) | 22.3 | 13.9 | -10.74
Cc1ccc(S(=O)(=O)c2c(COC(=O)c3cccc(C)c3)c(-c3ccccc3)nn2C)cc1 | -0.37 | -31.3 | -10.49
CCCCN(CCCC)S(=O)(=O)c1ccc(NC(=O)c2ccco2)cc1 | 30.9 | -25.1 | -10.62

From ChEMBL document CHEMBL3301451, “MMV Malaria Box gametocyte functional viability assay screening”
